The record followed here is paper PMC5876388 (Scientific Reports, 2018).

Structures are written as SMILES. Entries after “also recorded” stand apart in the source; their conditions may differ. Like-named read-outs stand apart in the source and are kept apart here.

Series [1] concerns Notch signaling (LS174T Notch cells). Description: Notch signaling transcriptional activity assay (luciferase reporter, T-REx system). Conditions: for IC50: read-out: IC50 of Notch signal inhibitory activity (luciferase). Format: cell-based. An excerpt:
We constructed a cell-based reporter assay with the T-Rex system to evaluate Notch signaling inhibitory activity. Without doxycycline (Dox), the tetracycline repressor (TetR) inhibits the expression of N-terminally FLAG-tagged mouse Notch1(1704–2531), which is 40 aa longer than NICD at the N-terminus. In the presence of Dox, Dox binds to the TetR to release the inhibition of expression of Notch1(1704–2531). Cleavage of Notch1(1704–2531) by γ-secretase generates NICD, which then translocates to the nucleus and forms a heterotrimer with RBP-J driving luciferase transcription (Fig. 2). This assay cells (LS174T Notch cells) was stably incorporated with pGL4.20 luciferase plasmid which has 12 × RBP-J binding site (12 copies of […])-β-globin promoter. Cell viability was measured using a fluorometric microculture cytotoxicity assay. […] The composition of the G. speciosa MeOH extract was partitioned successively with hexane, EtOAc, nBuOH, and water.
Figure 2 The T-REx assay system. Without Dox, expression of Notch1(1704–2531) is suppressed by TetR. The addition of Dox inactivates TetR to initiate expression of Notch1(1704–2531), which is then cleaved by endogenous γ-secretase to form NICD. NICD then translocates to the nucleus and forms a heterotrimer with RBP-J and MAML that binds to a 12× RBP-J binding site to drive luciferase expression. Luciferase activity was detected as Notch signaling pathway activity. Dox: doxycycline, TetR: tetracycline repressor, Luc.: luciferase.
Assay cells (LS174T Notch cells: 2 × 10^4 cells/well) were incubated in a 96-well white plate at 37 °C for 12 h. After incubation, 50 ng/mL Dox was added to each well to induce expression of exogenous Notch1(1704–2531) protein. After incubation at 37 °C for 12 h, the medium was changed to Dox-free medium containing individual samples. Luciferase activity was measured after treatment at 37 °C for 12 h. Cell viability was evaluated by the FMCA method at the same time. These assays were performed in 0.1% DMSO (n = 3). Error bars represent SD.
In a 96-well white plate, Cells (LS174T Notch cells; 2 × 10^4 cells per well) were cultured at 37 °C for 12 h. To express Notch1(1704–2531) protein in the cells, doxycycline (50 ng/mL) was added to each well, and cells were cultured at 37 °C for 12 h. Medium was changed to doxycycline-free medium containing each sample, then cells were incubated with at 37 °C for 12 h. A microplate luminometer (Thermo Fisher Scientific Inc., Waltham, USA) and the Bright-Glo™ Luciferase Assay System (Promega Co., Madison, USA) were used for measurement of Luciferase activity. Fluorometric Microculture Cytotoxicity Assay (FMCA) was used for measurement of cell viability of the sample-treated cells. After incubation of assay cells (2×10^4 cells per well) in a 96-well black plate at 37 °C for 24 h, samples addition was performed at the same time as the luciferase assay. The assay cells were cultures at 37 °C for 12 h. A fluorescence plate reader (Thermo Fisher Scientific Inc., Waltham, USA) was used for determination of cell viability by FMCA.
(Reporter assays use an easily measured gene product as a stand-in for the process of interest.)

Another series concerns HPB-ALL cells. Briefly: Cytotoxicity test, AlamarBlue. As for the experimental part: HPB-ALL cells (1 × 10^4 cells per well) were incubated in 96-well black plates at 37 °C for 72 h. Media also contained different concentrations of compound. After incubation, AlamarBlue was added 10 μL per well. After incubation for 4 h, using a fluorescence plate reader, fluorescence was measured and cell viability was determined. Data are presented as the mean with SD from three independent experiments. […] The effect on protein expression was analyzed by Western blotting. β-Actin was used as internal control. (D,E) Relative protein levels of NICD and HES1 analyzed by densitometry. Data are presented as the mean with SD from three independent experiments. *P < 0.05 is considered statistically significant. P values were analyzed by Student’s t test.
HPB-ALL cells (1 × 10^4 cells per well) were incubated in 96-well black plates in 100 μL of RPMI-1640 medium with 10% FBS, Streptomycin (100 μg/mL) and Penicillin (100 unit/mL). Media also contained different concentrations of compound. Cells were incubated at 37 °C for 72 h. After incubation, AlamarBlue (00–025, DAL1025; Thermo Fisher Scientific Inc., Waltham, USA) was added 10 μL per well. After incubation for 4 h, using a fluorescence plate reader (Thermo Fisher Scientific Inc., Waltham, USA), fluorescence was measured and cell viability was determined.
On the technique in general: Alamar Blue is a resazurin reagent that responds to reducing activity.

The mark [2] stands for this setting: LS174T Notch cells, 12 h treatment after Dox induction.
Where [3] appears, read: Homo sapiens, LS174T Notch cells, 12 h treatment after Dox induction.

Turning to `COc1cc2c(=O)c3c(O)c(C/C=C(\C)CCC=C(C)C)c(O)cc3oc2cc1O` [Compound 6, cowaxanthone], the “IC50 of Notch signal inhibitory activity (luciferase)” value in series [1] (setting [2]) was “weak activity or were inactive; also recorded: inactive”. For `COc1c(O)cc2oc3cc(O)c(CC=C(C)C)c(O)c3c(=O)c2c1CC=C(C)C` [Compound 1, α-mangostin], the IC50 in series [1] (setting [3]) is 8 µM. Same read-out and setting: the same measure for `CC(C)=CCC/C(C)=C/Cc1c(O)c(O)cc2oc3cc(O)c(CC=C(C)C)c(O)c3c(=O)c12` [Compound 4, norcowanin]: 10.5 µM; for `COc1c(O)cc2oc3cc4c(c(O)c3c(=O)c2c1CC=C(C)C)C=CC(C)(C)O4` [Compound 9, 9-hydroxycalabaxanthone]: 19.6 µM. Consider `COc1c(O)cc2oc3cc(O)c(C/C=C(/C)CO)c(O)c3c(=O)c2c1C/C=C(\C)CCC=C(C)C` [Compound 3, cowanol], for which the 50% inhibitory concentration (IC50) in series [1] (Homo sapiens, LS174T, 12 h) was determined as 7.3 µM. `COc1cc2oc3cc(O)c(OC)c(CC=C(C)C)c3c(=O)c2c(O)c1CC=C(C)C` [Compound 7, β-mangostin]: the IC50 in series [1] (setting [3]) came out at 7.5 µM.

For the compound `C=C(C)c1cc2c(O)c3c(=O)c4c(CC=C(C)C)c(OC)c(O)cc4oc3cc2o1` [Compound 12], in series [1] (setting [2]), the “IC50 of Notch signal inhibitory activity (luciferase)” value is “weak activity or were inactive; also recorded: inactive”. Regarding `COc1cc2oc3cc(O)c(CC=C(C)C)c(O)c3c(=O)c2c(CC=C(C)C)c1OC` [Compound 10, cowaxanthone B], in series [1] (setting [3]), the 50% inhibitory concentration (IC50) is 15 µM. With `C[C@H](NC(=O)Cc1cc(F)cc(F)c1)C(=O)N[C@H](C(=O)OC(C)(C)C)c1ccccc1` [DAPT, N-[N-(3,5-difluorophenacetyl)-L-alanyl]-S-phenylglycine t-butyl ester, reference compound], the IC50 in series [1] (setting [2]) is 0.12 µM; with HPB-ALL cells, > 20 µM. As to `COc1cc2oc3cc(O)c(CC=C(C)C)c(O)c3c(=O)c2c(CC=C(C)C)c1O` [Compound 8, 6-methoxy-γ-mangostin], the IC50 in series [1] (setting [3]) was > 40 µM. Also, the “IC50 of Notch signal inhibitory activity (luciferase)” value in series [1] (setting [2]) was “weak activity or were inactive”. `COc1c(O)cc2oc3cc(O)cc(O)c3c(=O)c2c1C/C=C(\C)CCC=C(C)C` [Compound 5, rubraxanthone]: the half-maximal inhibitory concentration (IC50) in series [1] (setting [3]) was > 40 µM. Further, the “IC50 of Notch signal inhibitory activity (luciferase)” value in series [1] (setting [2]) is “weak activity or were inactive”. For the compound `COc1c(O)cc2oc3cc4c(c(O)c3c(=O)c2c1C/C=C(\C)CCC=C(C)C)C=CC(C)(C)O4` [Compound 11, fuscaxanthone A], the IC50 in series [1] (setting [3]) turned out to be 11.7 µM.

As usually defined, the IC50 is the concentration that gives 50% inhibition.
